# Assay results as given in US11446352B2, “Compositions and methods for inhibiting tumor-induced immune suppression” (priority 2017, dated 2022).
# Key:
# [1] = tested on: Hs587T and MDA-MB-453 cell lines; assay: autophagy, mitochondria content and mitophagy in treated cancer cells; assay type: cell-based, human; settings: Hs587T and MDA-MB-453 cell lines
# Source text: (§1) The first bar indicates 100% folding activity of RRL without inhibitor. PR22 indicates the antibody without PR but with RRL and EnnA. PR represents the antibody (PR22) with PR but without RRL. All other samples have PR22, PR, and RRL without (first bar) or with increased concentration of EnnA. FIGS. 1C-1E are line graphs of cell survival versus EnnA concentration (μM) in breast cancer cell lines Hs578T (FIG. 1C), […] (FIG. 1D) and MDA-MB231 (FIG. 1E) upon treatment with EnnA for 48 and 72 h. […] PR alone (PR), antibody (PR22)+RRL, PR+RRL without inhibitor (RRL), PR+RRL with 1 μM 17-AAG (17AAG) PR+RRL with 10 μM BEAU or EnnA. FIGS. 1G-1I are autoradiographs of Western blots of cytosols from various cell lines treated with 17-AAG (1 μM) or EnnA (3 μM) with antibodies against the specified proteins. FIG. 1J is an autoradiograph showing EnnA causes autophagy in Hs578T and MDA-MB453 cell lines. FIGS. 1K-1N are electron microscopy micrographs showing autophagosomes and reduced mitochondria content in Hs578T cells treated with DMSO or EnnA. FIGS. 1O-1P are fluorescence micrographs showing EnnA causing reduced mitochondria content in Hs578T cells. FIGS. 1Q-1BB are fluorescence micrographs showing mitophagy in Hsp578T cells treated with EnnA as indicated by colocalization of the mitochondria marker Cox4 and the autophagy marker LC3BII.
# [2] = tested on: Hsp90 chaperoning machine; assay: progesterone receptor (PR) refolding assay using reticulocyte lysate (RRL); assay type: biochemical; settings: protein complex analysis; 10 μM EnnA, 1 μM 17-AAG
# Source text: as §1
# A cell-free high-throughput screen (HTS) platform based on the progesterone receptor (PR) using reticulocyte lysate (RRL) as a source of molecular chaperones was used to screen 175 natural products (Patwardhan C A, et al., J Biomol Screen (2014)). This assay captures the physiological steps of PR refolding by the Hsp90 chaperoning machine and measures the recovery of its hormone-binding activities after mild heat treatment. It has the ability to identify inhibitors as well as activators of the core components of the Hsp90 chaperoning machine (i.e., Hsp90, Hsp70, Hsp40, Hsp90/Hsp70 organizing protein (HOP), and p23), including compounds that target chaperone complexes as well as individual proteins.
# AB1-HA tumor = settings: CTX treatment at Day 9; cited from earlier work
# [3] = preclinical studies; cited from earlier work
# KB-3-1 cervix carcinoma = settings: cited from earlier work
compound,measurement,setting,value
"C=CCNC1=C2C[C@@H](C)C[C@H](OC)[C@H](O)[C@@H](C)/C=C(\C)[C@H](OC(N)=O)[C@@H](OC)/C=C\C=C(/C)C(=O)NC(=CC1=O)C2=O [17-AAG, reference compound]",mode of cell death (apoptosis / autophagy),[1],induces apoptosis
same,accumulation of Hsp70-rich PR complexes,[2],observed
"O=P1(N(CCCl)CCCl)NCCCO1 (centres unmarked) [CTX, Cyclophosphamide]",cure rate,AB1-HA tumor,75%
CC(C)[C@H]1C(=O)O[C@H](C(C)C)C(=O)N(C)[C@@H](C(C)C)C(=O)O[C@H](C(C)C)C(=O)N(C)[C@@H](C(C)C)C(=O)O[C@H](C(C)C)C(=O)N1C [Enniatin B],anti-angiogenic activity,[3],anti-angiogenic activity
same,reduction of tumor growth in combination with sorafenib,KB-3-1 cervix carcinoma,synergizes with sorafenib
